The source made the active and inactive calls.
Assays:
[1] = viability of uninfected HEp-2 cells – cell-based, HTS, cytotoxicity control for RSV inhibitor project, dose response (AID 2410); type: functional; settings: human respiratory syncytial virus
[2] = biological target: T1, Replicative DNA helicase DnaB (Mycobacterium tuberculosis, UniProt P9WMR3); assay: DnaB intein splicing inhibitors, dose response, biochemical, cell-free fluorescence (AID 449749); type: functional
T1 sequence (P9WMR3 whole entry): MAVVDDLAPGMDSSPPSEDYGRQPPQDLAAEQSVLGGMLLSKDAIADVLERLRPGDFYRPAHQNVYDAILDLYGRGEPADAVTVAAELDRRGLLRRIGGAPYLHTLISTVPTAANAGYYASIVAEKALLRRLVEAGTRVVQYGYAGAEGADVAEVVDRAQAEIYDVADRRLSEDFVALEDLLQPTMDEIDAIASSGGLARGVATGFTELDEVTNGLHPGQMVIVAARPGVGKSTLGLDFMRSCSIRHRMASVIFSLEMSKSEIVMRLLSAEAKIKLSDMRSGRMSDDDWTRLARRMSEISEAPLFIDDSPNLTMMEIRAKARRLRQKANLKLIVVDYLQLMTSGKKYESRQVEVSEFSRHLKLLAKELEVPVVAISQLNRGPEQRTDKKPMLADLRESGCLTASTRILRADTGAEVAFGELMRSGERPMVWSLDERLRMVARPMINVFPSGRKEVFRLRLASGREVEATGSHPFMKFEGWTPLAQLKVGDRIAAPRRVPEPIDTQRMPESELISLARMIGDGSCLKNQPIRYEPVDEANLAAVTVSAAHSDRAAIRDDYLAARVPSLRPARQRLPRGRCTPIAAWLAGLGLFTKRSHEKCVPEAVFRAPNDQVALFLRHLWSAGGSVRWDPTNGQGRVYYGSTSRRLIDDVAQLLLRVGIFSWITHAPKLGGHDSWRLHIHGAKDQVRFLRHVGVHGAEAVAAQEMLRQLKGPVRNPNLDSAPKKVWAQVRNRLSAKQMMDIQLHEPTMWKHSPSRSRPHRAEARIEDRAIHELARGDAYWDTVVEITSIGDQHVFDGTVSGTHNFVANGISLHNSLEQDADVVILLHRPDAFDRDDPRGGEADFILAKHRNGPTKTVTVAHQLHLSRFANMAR

Protein RecA = biological target: T2, Protein RecA (Mycobacterium tuberculosis, UniProt P9WHJ3); assay: Fluorescence Cell-Free Homogeneous Dose Retest to Identify Inhibitors of RecA-Intein Splicing Activity. [Related pubchem assays (depositor defined):AID2097, AID2223, AID489010, AID492950]; type: functional
T2 sequence (P9WHJ3 whole entry): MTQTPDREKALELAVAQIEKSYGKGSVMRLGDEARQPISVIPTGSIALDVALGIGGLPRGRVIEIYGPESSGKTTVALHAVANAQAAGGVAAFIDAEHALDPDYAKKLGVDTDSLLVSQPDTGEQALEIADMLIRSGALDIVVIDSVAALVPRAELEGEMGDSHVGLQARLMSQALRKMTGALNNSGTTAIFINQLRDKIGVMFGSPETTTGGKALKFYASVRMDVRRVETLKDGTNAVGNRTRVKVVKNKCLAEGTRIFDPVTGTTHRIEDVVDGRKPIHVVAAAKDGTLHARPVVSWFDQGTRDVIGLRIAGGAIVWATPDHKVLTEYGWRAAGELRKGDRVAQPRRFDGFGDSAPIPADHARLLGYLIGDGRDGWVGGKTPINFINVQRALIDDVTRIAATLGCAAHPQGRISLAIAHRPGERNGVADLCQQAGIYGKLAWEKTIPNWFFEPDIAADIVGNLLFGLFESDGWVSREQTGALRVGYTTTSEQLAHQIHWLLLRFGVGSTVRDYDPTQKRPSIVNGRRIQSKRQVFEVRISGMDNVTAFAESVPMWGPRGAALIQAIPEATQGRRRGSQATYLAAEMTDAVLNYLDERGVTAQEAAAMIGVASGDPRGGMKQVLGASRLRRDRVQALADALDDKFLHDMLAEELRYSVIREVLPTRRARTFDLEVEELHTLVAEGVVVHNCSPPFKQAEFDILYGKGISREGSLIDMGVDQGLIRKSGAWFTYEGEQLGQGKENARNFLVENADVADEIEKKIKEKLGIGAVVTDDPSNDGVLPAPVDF

Cytochrome P450 2D6 = Cytochrome P450 2D6 (Homo sapiens, UniProt P10635);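 note: CYP2D6 member of a cytochrome P450 panel assay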
Sequence of Cytochrome P450 2D6 (P10635 whole entry): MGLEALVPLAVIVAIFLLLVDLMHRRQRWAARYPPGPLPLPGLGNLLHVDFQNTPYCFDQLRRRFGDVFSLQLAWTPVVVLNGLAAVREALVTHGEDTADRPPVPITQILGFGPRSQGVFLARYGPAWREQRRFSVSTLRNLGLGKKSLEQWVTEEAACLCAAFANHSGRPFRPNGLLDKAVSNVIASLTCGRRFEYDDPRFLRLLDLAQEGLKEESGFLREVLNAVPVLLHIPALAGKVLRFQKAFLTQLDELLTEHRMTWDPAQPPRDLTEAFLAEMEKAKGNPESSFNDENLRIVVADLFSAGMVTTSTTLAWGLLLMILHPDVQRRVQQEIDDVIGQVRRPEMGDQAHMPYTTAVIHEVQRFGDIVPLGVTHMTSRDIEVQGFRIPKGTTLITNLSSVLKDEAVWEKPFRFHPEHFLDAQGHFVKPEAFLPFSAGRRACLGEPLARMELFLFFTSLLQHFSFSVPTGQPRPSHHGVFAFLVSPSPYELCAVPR

Cytochrome P450 1A2 = biological target: T3, Cytochrome P450 1A2 (Homo sapiens, UniProt P05177);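 note: PubChem cytochrome P450 panel assay, CYP1A2 panel member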
T3 sequence (P05177 whole entry): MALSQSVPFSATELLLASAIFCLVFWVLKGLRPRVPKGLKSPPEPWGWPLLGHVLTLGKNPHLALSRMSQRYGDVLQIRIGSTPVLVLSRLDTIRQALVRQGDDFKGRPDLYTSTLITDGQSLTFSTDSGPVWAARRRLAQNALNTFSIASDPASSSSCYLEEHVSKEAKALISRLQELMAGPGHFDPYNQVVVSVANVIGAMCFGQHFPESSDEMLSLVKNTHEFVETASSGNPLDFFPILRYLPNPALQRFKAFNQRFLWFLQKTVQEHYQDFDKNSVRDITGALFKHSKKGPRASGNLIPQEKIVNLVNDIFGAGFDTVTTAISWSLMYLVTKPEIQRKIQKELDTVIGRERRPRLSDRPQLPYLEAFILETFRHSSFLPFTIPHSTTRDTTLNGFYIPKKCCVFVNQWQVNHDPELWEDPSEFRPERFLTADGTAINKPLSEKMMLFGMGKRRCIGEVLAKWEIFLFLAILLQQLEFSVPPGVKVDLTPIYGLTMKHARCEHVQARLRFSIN

Cytochrome P450 3A4 = Cytochrome P450 3A4 (Homo sapiens, UniProt P08684);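 note: CYP3A4 tested as one member of a cytochrome P450 panel screen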
Sequence of Cytochrome P450 3A4 (P08684 whole entry): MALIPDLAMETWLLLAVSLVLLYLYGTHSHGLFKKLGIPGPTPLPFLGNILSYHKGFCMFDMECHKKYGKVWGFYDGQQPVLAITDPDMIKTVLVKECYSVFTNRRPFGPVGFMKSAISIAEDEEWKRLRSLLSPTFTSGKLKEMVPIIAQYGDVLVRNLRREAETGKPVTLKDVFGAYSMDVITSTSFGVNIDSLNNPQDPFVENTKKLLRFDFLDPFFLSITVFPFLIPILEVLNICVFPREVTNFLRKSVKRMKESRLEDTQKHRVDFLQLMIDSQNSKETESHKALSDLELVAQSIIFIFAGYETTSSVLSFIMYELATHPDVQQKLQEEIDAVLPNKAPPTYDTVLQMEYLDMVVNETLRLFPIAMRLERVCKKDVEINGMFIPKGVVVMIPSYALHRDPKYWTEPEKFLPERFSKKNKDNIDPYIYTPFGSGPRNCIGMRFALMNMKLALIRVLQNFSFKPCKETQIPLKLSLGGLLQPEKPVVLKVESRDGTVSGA

Cytochrome P450 2C19 = Cytochrome P450 2C19 (Homo sapiens, UniProt P33261); assay: Cytochrome panel assay with activity outcomes. Panel member name: p450-cyp2c19 Compounds with AC50 equal or less than 10 uM are considered active; type: functional; settings: read-out: AC50
Sequence of Cytochrome P450 2C19 (P33261 whole entry): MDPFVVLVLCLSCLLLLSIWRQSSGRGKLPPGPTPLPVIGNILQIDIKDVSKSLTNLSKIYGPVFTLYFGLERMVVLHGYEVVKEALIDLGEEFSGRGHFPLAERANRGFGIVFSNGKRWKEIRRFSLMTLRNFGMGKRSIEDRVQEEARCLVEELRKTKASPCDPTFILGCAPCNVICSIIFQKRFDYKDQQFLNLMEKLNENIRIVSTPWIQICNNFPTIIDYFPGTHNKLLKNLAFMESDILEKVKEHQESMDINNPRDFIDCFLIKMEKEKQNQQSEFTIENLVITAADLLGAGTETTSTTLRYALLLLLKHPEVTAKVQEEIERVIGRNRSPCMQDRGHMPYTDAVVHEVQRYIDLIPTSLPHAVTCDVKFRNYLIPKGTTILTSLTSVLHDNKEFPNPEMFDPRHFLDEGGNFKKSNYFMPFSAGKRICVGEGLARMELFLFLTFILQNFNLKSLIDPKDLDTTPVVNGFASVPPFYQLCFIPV

cells = type: functional, cell-based
Cytochrome P450 2C9 = Cytochrome P450 2C9 (Homo sapiens, UniProt P11712)
Sequence of Cytochrome P450 2C9 (P11712 whole entry): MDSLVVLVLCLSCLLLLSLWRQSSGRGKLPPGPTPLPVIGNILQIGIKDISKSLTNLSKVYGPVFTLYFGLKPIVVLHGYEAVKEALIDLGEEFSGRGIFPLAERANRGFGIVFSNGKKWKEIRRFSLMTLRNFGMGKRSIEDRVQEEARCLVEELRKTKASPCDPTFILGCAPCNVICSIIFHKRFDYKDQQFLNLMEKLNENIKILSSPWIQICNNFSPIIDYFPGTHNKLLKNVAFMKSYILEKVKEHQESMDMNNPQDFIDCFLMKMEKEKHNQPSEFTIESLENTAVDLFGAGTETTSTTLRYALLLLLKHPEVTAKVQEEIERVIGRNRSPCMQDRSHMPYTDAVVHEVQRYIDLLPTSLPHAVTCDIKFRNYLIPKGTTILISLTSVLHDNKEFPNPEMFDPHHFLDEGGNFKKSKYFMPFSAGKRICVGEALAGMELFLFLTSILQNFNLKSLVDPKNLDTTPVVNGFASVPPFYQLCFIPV

Cc1cc(-n2nnc3ccccc32)nc2ccccc12
CC50 [1]: 19.1 µM (active)

Cc1nn(-c2ccccc2)c2c1C(c1ccc(F)cc1)C(C#N)=C(N)O2 (centres undefined)
AC50 [2]: 3.55 µM (active) | EC50 (Protein RecA): 2.93 µM (active)

CC(=O)C1=C(O)[C@@H]2[C@@H]3c4c[nH]c5cccc(c45)C[C@@H]3C(C)(C)N2C1=O
AC50 (Cytochrome P450 2D6): 39.8 µM (inconclusive) | AC50 (Cytochrome P450 1A2): 12.6 µM (inconclusive) | AC50 (Cytochrome P450 3A4): 10 µM (inconclusive)

Cc1ncsc1C(=O)N1N=C2/C(=C/c3ccccc3)CCCC2C1c1ccccc1 (centres undefined)
AC50 (Cytochrome P450 1A2): 17.8 µM (inconclusive) | AC50 (Cytochrome P450 2C19): 17.8 µM (inconclusive)

Cc1ccc(Nc2nc(Cl)c(C=O)s2)cc1Cl
CC50 [1]: 19.2 µM (active)

CC(Oc1ccc2c3c(c(=O)oc2c1)CCCC3)C(=O)NCC(O)c1ccccc1 (centres undefined)
EC50 (cells): > 350 µM (not active)

CCOC(=O)c1c(C)[nH]c(C(=O)/C(C#N)=C/c2ccc(OC)c(OC)c2)c1C
CC50 [1]: > 50 µM (active)

Nc1nc(Cl)cc(N2CCOCC2)n1
AC50 (Cytochrome P450 2D6): 39.8 µM (inconclusive) | AC50 (Cytochrome P450 1A2): 15.8 µM (inconclusive)

CC(C)C(NC(=O)C1CCCCC1)C(=O)NC1CCN(Cc2ccccc2)CC1 (centres undefined)
AC50 (Cytochrome P450 2C19): 3.55 µM (inconclusive)

CCN1C=C(Cc2ccccc2C)C2=C(C1)C(c1ccccc1C)C(C#N)=C(N)O2 (centres undefined)
CC50 [1]: 13.1 µM (active)

COc1ccc(-c2nc3n(c2Br)CCC3)cc1
CC50 [1]: 30.9 µM (active)

CCOc1ccc(CNc2ccc(CNc3nc[nH]n3)cc2)cc1
CC50 [1]: 18 µM (active)

C=CCn1c(SCC(=O)Nc2ncc(Cc3ccc(Br)cc3)s2)nnc1-c1ccncc1
AC50 (Cytochrome P450 2C19): 2.82 µM (inconclusive)

NC(=O)CNC(=O)[C@@H]1CC2(CC(c3cccc([N+](=O)[O-])c3)=NO2)CN1C(=O)c1ccccc1 (some centres undefined)
AC50 (Cytochrome P450 2D6): 31.6 µM (inconclusive) | AC50 (Cytochrome P450 2C9): 0.708 µM (inconclusive)

COc1ccc(NC(=O)CSc2nc3cc[nH]cc-3n2)c(OC)c1
CC50 [1]: 33.1 µM (active)

COc1cc(C(=O)NCC(c2cccnc2)N2CCN(C)CC2)cc(OC)c1OC (centres undefined)
AC50 (Cytochrome P450 2C19): 39.8 µM (inconclusive)

N#Cc1cccc(-c2ccc3ncnc(NCc4ccccc4)c3c2)c1
AC50 (Cytochrome P450 2D6): 10 µM (inconclusive) | AC50 (Cytochrome P450 2C9): 0.631 µM (inconclusive) | AC50 (Cytochrome P450 3A4): 15.8 µM (inconclusive)

COC(=O)Cn1c(C(=O)N(C)C)cc2c1C[C@H]1CN(C(=O)c3ccccc3)[C@@](Cc3ccc(OC)cc3)(C(=O)OC)[C@@H]21
AC50 (Cytochrome P450 2C9): 12.6 µM (inconclusive) | AC50 (Cytochrome P450 2C19): 20 µM (inconclusive)

N=C(NOC(=O)Cc1ccc(Cl)cc1)c1cccnc1
AC50 (Cytochrome P450 2D6): 6.31 µM (inconclusive) | AC50 (Cytochrome P450 2C9): 12.6 µM (inconclusive)
